The values that follow come from EP4817688A2, “DEGRADING PKCß1 TO TREAT CANCER” (Mayo Foundation for Medical Education and Research, priority 2020, dated 2022).

Experiment [1] concerns KURAMOCHI cells. The experiment in a line: crystal violet (CV) proliferation assay, KURAMOCHI
The settings on record: KURAMOSHI (PKCβ1^low) 1000 cells/well; read-out: Approximate IC50. It counts as cell-based. Here is the method:
(§1) Cell proliferation rates were determined using crystal violet assays. One thousand cells per well were plated in 96 well tissue culture plates and treated the following day with a bifunctional compound or control for 7 days in replicates of 8. Cells were fixed with 25% glutaraldehyde for 10 minutes with shaking, washed 5 times with distilled water, stained with a 1% crystal violet solution (solubilized in 25% methanol) for 10 minutes, washed again 5 times and allowed to dry. De-staining was performed using […] sodium citrate in 50% ethanol followed by quantification using a 96 well spectrophotometer set at an absorbance of 550 nm.
(§2) Based on the potent anti-proliferative activity of ENDX-PROTACs TC-Pr-006, TC-Pr-007, TC-Pr -008, and TC-Pr -009 in TNBC cells, the efficacy of these compounds for inhibiting the growth of ovarian cancer cells was tested. This analysis utilized KURAMOCHI cells, which represent the high-grade serous subtype (the most malignant form that accounts for 70% of all ovarian cancers and associates with poor clinical outcome) and MDAH-2774 cells, which represent endometrioid ovarian cancer and accounts for 20% of all ovarian cancer. PKCβ1 was confirmed to be expressed in both ovarian cancer cell line models, with MDAH-2774 cells expressing higher amounts of PKCβ1 compared to KURAMOCHI cells (FIG. 5A). […]

Experiment [2] concerns MDAH-2774 cells. The experiment is described as follows: crystal violet (CV) proliferation assay, MDAH-2774. The class given is cell-based. The settings on record: Homo sapiens; MDAH-2774 (PKCβ1^high) 1000 cells/well; read-out: Approximate IC50. Here is the method:
as §1, §2

Broadly, the IC50 is the point on the concentration scale where inhibition reaches its midpoint.

Regarding `CCC(=C(c1ccc(O)cc1)c1ccc(OCCN(C)C(=O)COCCOCCNC(=O)Cc2ccc3c(c2)CN(C2CCC(=O)NC2=O)C3=O)cc1)c1ccccc1` (centres unmarked) [TC-Pr-009, 2-[2-(2-2-[2-(2,6-dioxopiperidin-3-yl)-1-oxo-2,3-dihydro-1H-isoindol-5-yl]acetamidoethoxy)ethoxy]-N-(2-4-[1-(4-hydroxyphenyl)-2-phenylbut-1-en-1-yl]phenoxyethyl)-N-methylacetamide], the IC50 in experiment [1] and in experiment [2] was 1 to 10 µM each time.
